Measurements as given in article PMC8080620, “Coiled-coil heterodimers with increased stability for cellular regulation and sensing SARS-CoV-2 spike protein-mediated cell fusion” (Scientific Reports, 2021).
Where a name gives a salt, the structure may show the parent alone.

What was measured:
[1] = CD thermal denaturation scans (midpoint Tm); type: physicochemical; settings: CC of the peptide with N8 compared with N8:N7
Experimental: CD measurements were performed with a ChiraScan instrument (Applied Photophysics, UK) equipped with a Peltier thermal control block (Melcor, NJ, Laird Technologies). The final concentrations of individual peptides were […] in Tris buffer (50 mM Tris–HCl, pH 7.5, 150 mM NaCl, and 1 mM TCEP). The mixture also contained a 20 μM concentration of each peptide. All experiments were performed in a quartz cuvette (Hellma, Germany) with a path length of 1 mm. CD spectra were measured every 1 nm from 200 to 280 nm with a bandwidth of 1 nm and 0.5 s integration time. The results are the average of three scans. Temperature denaturation scans were performed by measuring the CD signal at 222 nm from 0 to 95 °C in 1 °C increments at a rate of 1 °C/min. The actual sample temperatures were measured directly in the cuvette using a temperature probe. The CD spectrum was measured at 95 °C and at 20 °C after rapid cooling.

[2] = system: CC-split transcription factor (TALE-A:CC with CC:VP16) in HEK293T cells; test: CC-split transcription factor reconstitution and displacement (TALE10x-Pmin-fLuc reporter); type: cell-based, human; settings: TALE-A:N8 with CC:VP16, displacer plasmid 0-50 or 0–70 ng, 48 h after transfection
[3] = system: reconstituted CC-split luciferase in HEK293T cells; test: CC-split luciferase displacement by externally added synthetic displacer peptide; type: cell-based, human; settings: for Displacement of cognate peptide from the N8:N7 split luciferase by added synthetic peptide: nLuc:N8 and cLuc:N7, peptide 0–50 µM in DOTAP for 2 h (Fig. S6B)
[4] = system: reconstituted CC-split luciferase in HEK293T cells; test: CC-split luciferase attenuation by co-expressed displacer peptide; type: cell-based, human
[5] = system: SARS-CoV-2 S protein-mediated cell–cell fusion; type: cell-based, human
[6] = SEC-MALS multimerization state; type: physicochemical; settings: peptides 200 µM in 50 mM Tris–HCl pH 7.5, 150 mM NaCl, 10% glycerol
Experimental: A Waters e2695 HPLC system coupled with a 2489 UV detector (Waters, MA) and a Dawn 8 + multiple-angle light scattering detector (Wyatt, CA) was used for SEC-MALS experiments. Peptides (200 μM in 50 mM Tris–HCl with a pH of 7.5, 150 mM NaCl, and 10% glycerol) were filtered using Durapore 0.1 μm centrifuge filters (Merck Millipore, Ireland) before being injected onto the Biosep SEC-S2000 column (Phenomenex, CA), with the exception of the peptide N2, which was injected in a Superdex 30 increase column (GE, IL). The mobile phases used for the separations were 50 mM Tris–HCl, pH 7.5, 150 mM NaCl and 50 mM Tris–HCl, pH 7.5, 500 mM NaCl for the Biosep SEC-S2000 column and the Superdex 30 increase column, respectively. The injection volume was 50 μl, and the flow rate was 0.5 ml/min. Data analysis was carried out with Astra 7.0 software (Wyatt, CA) utilizing the theoretical extinction coefficient calculated by ProtParam.

N6 = target: T1, N6 (synthetic construct, N-terminal acetylation; C-terminal amidation); test: ITC
T1 chain: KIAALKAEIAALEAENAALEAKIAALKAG

[7] = target: the molecule itself; test: SEC-MALS; peptides 200 µM, alone or as equimolar mixture; Biosep SEC-S2000 column; 50 mM Tris-HCl pH 7.5, 150 mM NaCl
P6A [8] = target: T2, P6A (N-terminal acetylation; C-terminal amidation); test: CD thermal denaturation; 20 µM each peptide; CD signal at 222 nm, 0 to 95 °C; 50 mM Tris-HCl pH 7.5, 150 mM NaCl, 1 mM TCEP; midpoint Tm from a thermodynamic model fit; settings: both partners purified
T2 chain: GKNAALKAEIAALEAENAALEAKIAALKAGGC

P6A [9] = target: T3, P6A (synthetic construct, N-terminal acetylation; C-terminal amidation); test: ITC
T3 chain: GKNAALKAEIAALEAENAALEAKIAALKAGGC

P8A [10] = target: T4, P8A (N-terminal acetylation; C-terminal amidation); test: CD thermal denaturation; 20 µM each peptide; CD signal at 222 nm, 0 to 95 °C; 50 mM Tris-HCl pH 7.5, 150 mM NaCl, 1 mM TCEP; midpoint Tm from a thermodynamic model fit; settings: both partners purified
T4 chain: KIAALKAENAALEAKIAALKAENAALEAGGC

P8A [11] = target: T5, P8A (synthetic construct, N-terminal acetylation; C-terminal amidation); test: ITC
T5 chain: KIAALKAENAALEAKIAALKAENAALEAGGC

N8 = target: T6, N8 (synthetic construct, N-terminal acetylation; C-terminal amidation); test: ITC
T6 chain: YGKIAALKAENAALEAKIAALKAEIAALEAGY

## SPED EIQALEE KNAQLKQ EIAALEE KNQALKY G [P7, reference compound]
[1]
  midpoint Tm of N-P-CCs lower than N-CCs: more than 10 °C
[2]
  Attenuation of CC-split transcription activator assembly by co-expressed NLS-tagged CC-displacer peptide: failed to prevent the reconstitution of a functional transcription as efficiently
[3]; HEK293T
  Displacement of cognate peptide from the N8:N7 split luciferase by added synthetic peptide: failed to displace the cognate peptide from the N8:N7 split luciferase as efficiently

## Y EIAALEA KNAALKA EIAALEA KIAALKA GC [N7]
[4]; HEK293T, plasmid expressing displacer 0, 80, 155 ng, 48 h after transfection
  Competition of co-expressed displacer peptide with N8:N7 CC split luciferase: failed to effectively compete
[2]
  Attenuation of CC-split transcription activator assembly by co-expressed NLS-tagged CC-displacer peptide: weakened the transcription activator assembly most efficiently
[3]; […], peptide in DOTAP for 2 h, 48 h after transfection
  Luciferase activity of CC-split luciferase after addition of synthetic CC-displacer peptide: debilitated CC-split luciferase assembly most efficiently

## CN(C)C(=O)COC(=O)Cc1ccc(OC(=O)c2ccc(NC(=N)N)cc2)cc1 [Camostat, camostat mesylate]
[5]
  Syncytia formation, luciferase activity of mixture of donor and acceptor cells: reduced the amount of formed syncytia

## EIQQLEE KNSQLKQ EISQLEE KNQELKY G [P7SN, reference compound]
[1]
  midpoint Tm of N-P-CCs lower than N-CCs: more than 10 °C
[3]; HEK293T
  Displacement of cognate peptide from the N8:N7 split luciferase by added synthetic peptide: failed to displace the cognate peptide from the N8:N7 split luciferase as efficiently

## YG KNAALKA EIAALEA ENAALEA KIAALKA GGC [P6A]
[6]
  Multimerization state in solution: monomers

## YG KIAALKA ENAALEA KIAALKA ENAALEA GGC [P8A]
[6]
  Multimerization state in solution: monomers

## YG EIAALEA KNAALKA EIAALEA KNAALKA GC [P7A]
[1]
  midpoint Tm of N-P-CCs lower than N-CCs: more than 10 °C
[2]
  Attenuation of CC-split transcription activator assembly by co-expressed NLS-tagged CC-displacer peptide: failed to prevent the reconstitution of a functional transcription as efficiently
[3]; HEK293T
  Displacement of cognate peptide from the N8:N7 split luciferase by added synthetic peptide: failed to displace the cognate peptide from the N8:N7 split luciferase as efficiently
[6]
  Multimerization state in solution: monomers

## YG ENAALEA KIAALKA KNAALKA EIAALEA GC [P5A]
[6]
  Multimerization state in solution: monomers

## Y EIAALEA KIAALKA KNAALKA EIAALEA GC [N5]
[4]
  N6:P5 split luciferase activity with co-expressed displacer peptide: attenuated N6:P5 split luciferase activity
[3]; HEK293T, nLuc:N6 and cLuc:P5, […]
  Displacement of cLuc:P5 from the N6:P5 split luciferase by added synthetic peptide: effectively displaced cLuc:P5

## Ac-GEIAALEAKIAALKAKNAALKAEIAALEAGY-NH2 [N5]
N6
  Kd: 1 nM
[7]
  stoichiometry N: 2

## Ac-ENAALEAKIAALKAKNAALKAEIAALEA-NH2 [P5A]
P6A [8]
  Tm: 57 °C
P6A [9]
  Kd: 4 nM

## Ac-GEIAALEAKNAALKAEIAALEAKNAALKAGC-NH2 [P7A]
P8A [10]
  Tm: 64 °C
P8A [11]
  Kd: 19 nM

## Ac-GEIAALEAKNAALKAEIAALEAKIAALKAGY-NH2 [N7]
N8
  Kd: 10 nM
[7]
  stoichiometry N: 2

## Ac-KIAALKAEIAALEAENAALEAKIAALKAG-NH2 [N6]
[7]
  stoichiometry N: 2

## Ac-YGKIAALKAENAALEAKIAALKAEIAALEAGY-NH2 [N8]
[7]
  stoichiometry N: 2
